Experiment [1] has as its target Sodium channel alpha subunits; brain (Types I, II, III) (Rattus norvegicus, UniProt P04775+P04774+P08104). Kind of experiment: Concentration required to inhibit [3H]BTX binding to Sodium channel of rat brain.
The test system of the next experiment is SH-SY5Y. In words: Cytoprotection of SH-SY5Y cells against veratridine-induced cytotoxicity. The class given is functional, cell-based. The conditions noted are these: Homo sapiens.

pIC50: −log10 of the molar value.

Regarding `CCCCCC(CCCCC)c1nc(-c2ccc(F)cc2)c[nH]1`, the half-maximal inhibitory concentration (IC50) – broadly, the concentration that gives 50% inhibition – in experiment [1] is 25 nM. Further, the pIC50 – broadly, −log10 of the IC50, conventionally taken in molar units – in the experiment with SH-SY5Y is 6.11.

Molecule `CCCCCCc1nc(-c2ccc(-c3ccccc3)cc2)c[nH]1` came in with an IC50 in experiment [1] of 16 nM. The pIC50 in the experiment with SH-SY5Y was 6.35.

In experiment [1], `CCCC(CCC)c1nc(-c2ccc(-c3ccc(Br)cc3)cc2)c[nH]1` displayed an IC50 of 322 nM.

Take `CCCC(CCC)c1nc(-c2ccc(-c3ccccc3)cc2)c[nH]1`: the IC50 in experiment [1] is 100 nM. Against the preceding molecule, the IC50 is about 3.2-fold lower.

For the molecule `CCCC(CCC)c1nc(-c2ccc(F)cc2)c[nH]1`, in experiment [1], the IC50 was determined as 518 nM.

For the molecule `c1ccc(-c2ccc(-c3c[nH]c(CCC4CCCCC4)n3)cc2)cc1`, the IC50 in experiment [1] is recorded as 26 nM. For the same molecule, the pIC50 in the experiment on SH-SY5Y is 6.12.

Consider `CCCCCC(CCCCC)c1nc(-c2ccccc2)c[nH]1`, for which the IC50 in experiment [1] amounted to 86 nM.

Turning to `CCCC(CCC)c1nc(-c2ccc(C(C)(C)C)cc2)c[nH]1`, in experiment [1], the IC50 stood at 30 nM. In addition, the pIC50 with SH-SY5Y was 6.37.

Molecule `c1ccc(-c2c[nH]c([C@H]3Cc4c([nH]c5ccccc45)[C@@H](c4ccccc4)N3)n2)cc1` gave an IC50 in experiment [1] of 1460 nM.

`Cc1nc(-c2ccc(-c3ccccc3)cc2)c[nH]1` yielded an IC50 in experiment [1] of 1460 nM.

In turn, `c1ccc(-c2ccc(-c3c[nH]c(CCCC4CCCCC4)n3)cc2)cc1` gave an IC50 in experiment [1] of 19 nM. Further, the pIC50 with SH-SY5Y is 6.00.

For the molecule `CCCCCCc1nc(-c2ccc(CC(C)C)cc2)c[nH]1`, in experiment [1], the IC50 is given as 28 nM. The pIC50 in the experiment on SH-SY5Y is 6.42.

For `CCCCCC(CCCCC)c1nc(-c2ccc(-c3ccccc3)cc2)c[nH]1`, the 50% inhibitory concentration (IC50) in experiment [1] is recorded as 8 nM. In the experiment on SH-SY5Y, this molecule had a pIC50 of 6.09.

Turning to `c1ccc(-c2ccc(-c3c[nH]c(CC4CCCCC4)n3)cc2)cc1`, in experiment [1], the IC50 was found to be 70 nM.

For `Fc1ccc(-c2c[nH]c(CC3CCCCC3)n2)cc1`, in experiment [1], the IC50 amounted to 146 nM.

On to `NC(=O)N1c2ccccc2C=Cc2ccccc21` [CARBAMAZEPINE], for which the IC50 in experiment [1] is given as 167000 nM.

As to `Nc1nnc(-c2cccc(Cl)c2Cl)c(N)n1` [LAMOTRIGINE], in experiment [1], the IC50 was determined as 31000 nM.

`CCN(CC)CC(=O)Nc1c(C)cccc1C` [LIDOCAINE] showed an IC50 in experiment [1] of 56000 nM.

The values are drawn from ChEMBL document CHEMBL1147475, “2-Alkyl-4-arylimidazoles: structurally novel sodium channel modulators” (Bioorg Med Chem Lett, 2004).
